In US10131671B2, “Organic compounds” (Intra-Cellular Therapies, Inc., priority 2014, dated 2018):

What was measured:
[1] = Pharmacokinetic analysis in mice: plasma and brain levels after oral dose; assay type: in vivo, C57BL/6 mice; conditions: male, C57BL/6, mouse, 10 mg/kg, 10 mg/kg PO, Brain AUC(0-2h)/Plasma AUC(0-2h) or Brain Cmax/Plasma Cmax, read-out: ratio of brain/plasma concentration (B/P)
Protocol: Animals: Male, C57BL/6 mice (Jackson Labs, 25-30 g in body weight) are provided by Jackson Laboratories. Up to five mice are housed per cage and are maintained under a 12 hour light/dark cycle with access to food and water ad libitum. All procedures for the handling and use of animals follow the guidelines of the Institutional Animal Care and Use Committee (IACUC) of Columbia University, in accordance with NIH guidelines. Eight week-old mice (N=3/dose level or treatment group) are used in the experiments.
Experimental Treatment: Compounds: Selected Compounds of the Invention are evaluated in the present study. Formulation/Vehicle: 3% 1N HCl, 5% Labrasol and 92% of 5% TPGS in 0.05M Citrate buffer (CB, pH 4.0). The test compound(s) are prepared as solution in vehicle and are dosed in a volume of 8 ml/kg.
Compound Preparation: Powdered stocks of the test compound(s) are measured and dissolved in 3% 1N HCl, 5% Labrasol and 92% of 5% TPGS in 0.05M Citrate buffer (CB, pH 4.0). Two or three layers of 3 mm glass beads are added to the bottom of the 10 ml glass tube to promote mixing. […]
Treatment of Animals: Mice (N=3 mice/dose/time point) receive a 10 mg/kg oral (PO) dose of the test compound(s) at time 0. […] Plasma and brain tissue samples are processed and analyzed by the analytical group using LC-MS/MS methods, as described below. […]
Each tube is vortexed, then centrifuged for 20 min at 15000 rpm using a Tomy benchtop centrifuge at 4° C. Standard is an internal standard used for LC-MS/MS quantitation. […]
HPLC and Mass Spectrometric Analysis: Analysis to quantify the concentration of each compound in plasma and brain homogenate is carried out using reverse phase HPLC followed by mass spectrometric detection using the parameters listed:
Each compound is detected and quantified using Multiple Reaction Monitoring (MRM) of positive electrospray mode with a Waters QuattroMicro™ mass spectrometry system.
RESULTS: Plasma and Brain Analysis: All the test compound(s) tested could be detected and analyzed when spiked into control plasma. […]

[2] = tested on: isoproterenol-induced cardiac hypertrophy; experiment: Isoproterenol induced cardiac hypertrophy mouse model; assay type: in vivo, 129S1/SvlmJ mice; conditions: for HW/TL Ratio (mean): isoproterenol 10 mg/kg s.c. days 4-9, heart weight/tibia length on day 10
Protocol: The compound of Example 2 is tested in a mouse model where the mice are treated with isoproterenol. Such a model can be useful for extrapolating to diseases or disorders involving an enlargement of the heart or cardiac tissue, e.g., congestive heart disease. Animals: 129S1/SvlmJ mice, 20-40 grams, Jackson Laboratories (Bar Harbor, Me.). Test Compound of Example 2: Test compound of Example 2 is supplied as a powder. The test article dosing solutions are prepared on the day of administration by dissolving the test compound in the vehicle (0.9% sodium chloride for injection, U.S.P.) at concentration of 2.0 mg/mL stock/dosing solution. The compound are agitated with a vortex mixer and sonicated to ensure the compound is in solution. The 2.0 mg/mL solution is diluted with vehicle to create the 0.2 mg/mL and the 0.6 mg/mL dosing solutions. Dosing solutions are stored in a refrigerator between the daily doses and are allowed to return to room temperature before the evening dose. Test Compound Isoproterenol: Test compound isoproterenol is supplied by Sigma (St. Louis, Mo.) as a powder. The test article dosing solutions are prepared on the day of administration by dissolving the test compound in the vehicle (0.9% sodium chloride for injection, U.S.P.) at concentration of 2.0 mg/mL. The compound is agitated with a vortex mixer and sonicated to ensure the compound is in solution. [table] Mice in group 1 and 2 are dosed daily via subcutaneous administration. On days 7, 10 and 14, 2 animals from groups 1 and 2 are weighed and then euthanized via CO2 asphyxiation. Hearts are harvested and gently infused with ice cold saline until clear. The entire heart is weighed. The atria are removed and the left ventricle (with septum) is separated from the right ventricle. The ventricles are weighed separately. The left tibia is removed and separated from the soft tissue. Longitudinal measurement are obtained with a digital micrometer. Mice in groups 3-6 are dosed once/day with isoproterenol subcutaneously from Days 4-9 and twice/day with vehicle or test compound via intraperitoneal administration from Days 1 to 9. On Day 10 (based on the results from Groups 1 and 2) animals from each group are weighed and then euthanized via CO2 asphyxiation. Hearts are harvested and gently infused with ice cold krebs-henseleit buffer (Sigma 3753) until clear. The entire heart is weighed. The atria are removed and the left ventricle (with septum) is separated from the right ventricle. The ventricles are weighed separately. The ventricles are stored in ice cold krebs-henseleit buffer for approximately 15 minutes and then transferred to 10% buffered formalin at room temperature until possible shipment for possible future analysis. The left tibia is removed and separated from the soft tissue. Longitudinal measurement is obtained with a digital micrometer.

[3] = tested on: TAC-induced hypertrophy; experiment: Transverse aortic constriction (TAC) mouse model of cardiac hypertrophy; assay type: in vivo, C59Bl/6 mice; conditions: for Terminal LV + S/TL Ratio (mean) (TAC ratio): day 1-28 post-surgery, left ventricle+septum weight/tibia length
Protocol: Animals: C59Bl/6 mice, 20-40 grams, Charles River (Portage, Mich.).
Test Compound of Example 2: Test compound of Example 2 is formulated. The test article dosing solutions are prepared by titrating the free base with 1 mole/mole dilute (0.02N) HCl and diluting the dissolved test compound in the vehicle (0.5% methylcellulose in distilled water) to a final concentration of 0.45 mg/mL and 1.5 mg/mL dosing solution. A supply of formulation for thirty days of dosing are prepared (day 1-6 for 1st surgical cohort).
Reference Test Compound—Losartan potassium: Losartan is obtained by CorDynamics, and prepared on the day of administration by dissolving in the vehicle (0.5% methylcellulose in distilled water) at concentration of 4.5 mg/mL dosing solution. The compound is agitated with a vortex mixer and sonicated to ensure the compound is in solution.
Transverse Aortic Constriction Surgery: Animals are anesthetized with isoflurane using a nose cone connected to a vaporizer that delivers 1-2% isoflurane driven by 100% oxygen. After initial anesthesia with isoflurane, mice receive 1 mg/kg Buprenex SR (1 mg/mL, s.c.) and 10 mg/kg of etomidate (2 mg/mL, i.p.). Animals are intubated for mechanical ventilation. The endotracheal tube is connected to a mechanical ventilator that provides positive-pressure ventilation with 1-2% isoflurane remainder oxygen, set to maintain ˜120 breaths/min with a tidal volume of ˜200 μL. Body temperature is monitored throughout the experiment.
A sternotomy is performed from the manubrium through the second or third rib in order to expose the aorta in the thoracic cavity. The aorta is cleaned of surrounding tissue and the transverse aorta clamped with a titanium microclip, the diameter similar to a 27 G needle. The transverse aorta from mice in Group 1 is cleaned of surrounding tissue but not clamped. The incision is closed, endotracheal tube is removed and animal is allowed to recover.
Mice are dosed twice daily with vehicle or the compound of Example 2 via oral administration with approximately 6 hours between each dose beginning at 1 day post-surgery. Mice are dosed once daily with losartan via oral administration. Body weights are taken after arrival, prior to surgery, prior to dosing on the first day of dosing and every third day of dosing for dose calculation purposes.
On day 28, echocardiographic measurements are performed for all experimental groups. Animals are anesthetized with isoflurane using a nose cone connected to a vaporizer that delivers 1-2% isoflurane driven by 100% oxygen. Mice are placed in the dorsal decubitus position on a warming platform to maintain body temperature at 37±0.5° C. Heart rate is monitored throughout the experiment. Transthoracic two-dimensional, B-mode, M-mode and pulsed Doppler images are acquired with a high-resolution echocardiographic system (VeVo 770, Visual Sonics, Toronto, ON, Canada) equipped with a 30-MHz mechanical transducer.
After echocardiographic measurements, animals are euthanized via CO2 asphyxiation. Hearts and lungs are harvested and gently infused with ice cold krebs-henseleit buffer (Sigma 3753) until clear. Lungs are weighed and the right and left lung are separated. The right and left lung are immediately frozen in liquid nitrogen and placed into separate tubes. The entire heart is weighed. The atria are removed and the left ventricle (with septum) is separated from the right ventricle. The ventricles are weighed separately before being divided into two pieces. Ventricle pieces are frozen in liquid nitrogen and placed into separate tubes. Liquid nitrogen samples are stored in a freezer set to maintain approximately −80° C. until shipped on dry ice to the Sponsor for possible future analysis.
The left tibia is removed and separated from the soft tissue. Longitudinal measurement will be obtained with a digital micrometer. The dissected tibia is disposed of with the rest of the carcass.

## CN1C(=O)c2c(nn(Cc3ccc(C(F)(F)F)cc3)c2Nc2ccccc2)N2C1=N[C@@H]1CCC[C@@H]12 [(6aR,9aS)-3-(phenylamino)-5,6a,7,8,9,9a-hexahydro-5-methyl-2-(4-(trifluoromethyl)-benzyl)-cyclopent[4,5]imidazo[1,2-a]pyrazolo[4,3-e]pyrimidin-4(2H)-one, reference compound]
[1]
  Kp: 4.5 to 4.8

## CN1C(=O)c2c(nn(Cc3ccncc3)c2Nc2ccc(F)cc2)N2CC(C)(C)N=C12 [Example 1, 3-((4-fluorophenyl)amino)-5,7,7-trimethyl-2-(pyridin-4-ylmethyl)-7,8-dihydro-2H-imidazo[1,2-a]pyrazolo[4,3-e]pyrimidin-4(5H)-one]
[1]
  Kp: ≤ 0.1

## Cc1ncc(Cn2nc3c(c2Nc2ccc(F)cc2)C(=O)N(C)C2=NC(C)(C)CN23)cn1 [Example 2, 3-((4-fluorophenyl)amino)-5,7,7-trimethyl-2-((2-methylpyrimidin-5-yl)methyl)-7,8-dihydro-2H-imidazo[1,2-a]pyrazolo[4,3-e]pyrimidin-4(5H)-one]
[2]; 1 mg/kg
  reduction in the heart weight/tibia length (HW/TL) ratio compared to vehicle: ~8%
[2]; 1 mg/kg twice/day days 1-9
  HW/TL Ratio (mean): 8.49 mg/mm
[2]; 3 mg/kg
  decrease of (LV+RV)/TL ratio (left ventricle plus right ventricle weight/tibia length) compared to vehicle: 10%
  prevention of cardiac hypertrophy: significantly prevents cardiac hypertrophy
  reduction in the heart weight/tibia length (HW/TL) ratio compared to vehicle: ~12.5%
[2]; 3 mg/kg twice/day days 1-9
  HW/TL Ratio (mean): 8.08 mg/mm
[2]; 10 mg/kg
  decrease of (LV+RV)/TL ratio (left ventricle plus right ventricle weight/tibia length) compared to vehicle: 10%
  prevention of cardiac hypertrophy: significantly prevents cardiac hypertrophy
  reduction in the heart weight/tibia length (HW/TL) ratio compared to vehicle: ~12.5%
[2]; 10 mg/kg twice/day days 1-9
  HW/TL Ratio (mean): 8.1 mg/mm
[2]; up to 10 mg/kg
  effect on the development of isoproterenol-induced cardiac hypertrophy: statistically significant effect
[3]; 3 mg/kg
  effect on cardiac hypertrophy induced by the TAC constriction: tendency to reverse the cardiac hypertrophy
[3]; 3 mg/kg oral twice/day
  Terminal LV + S/TL Ratio (mean) (TAC ratio): 5.8 mg/mm
[3]; 10 mg/kg
  effect on cardiac hypertrophy induced by the TAC constriction: tendency to reverse the cardiac hypertrophy
[3]; 10 mg/kg oral twice/day
  Terminal LV + S/TL Ratio (mean) (TAC ratio): 5.8 mg/mm
[3]; sham vs compound groups
  difference in TAC ratio between the sham group and the treated groups: not statistically significant

## CN1C(=O)c2c(nn(Cc3ccc(S(N)(=O)=O)cc3)c2Nc2ccc(F)cc2)N2CC(C)(C)N=C12 [Example 7, 4-((3-((4-fluorophenyl)amino)-5,7,7-trimethyl-4-oxo-4,5,7,8-tetrahydro-2H-imidazo[1,2-a]pyrazolo[4,3-e]pyrimidin-2-yl)methyl)benzenesulfonamide]
[1]
  Kp: < 0.05

## CCCCc1nc(Cl)c(CO)n1Cc1ccc(-c2ccccc2-c2nn[nH]n2)cc1 [Losartan, Losartan potassium, reference compound]
[3]; 40 mg/kg (as printed in the results table) oral once/day
  Terminal LV + S/TL Ratio (mean) (TAC ratio): 6.2 mg/mm
[3]; vehicle vs Losartan group
  difference in TAC ratio between the vehicle group and the treated group: not statistically significant
